Measured values as given in publication PMC10424179, “Disrupting Kaposi’s Sarcoma-Associated Herpesvirus (KSHV) Latent Replication with a Small Molecule Inhibitor” (Journal of Medicinal Chemistry, 2023).

Tests used:
[1] = Chromatographic LogD7.4; format: physicochemical; conditions: reversed-phase HPLC, NUCLEODUR C18 Pyramid column; pH 7.4, HPLC-MS based; read-out: Chrom. LogD7.4
Procedure: (§1) The next step was an in vitro ADMET profiling of the best seven compounds so far: 9, 11, 14, 19, 20, 21, and 27. The compounds were tested for their kinetic solubility (1% DMSO in PBS, pH 7.4), lipophilicity (chromatographic Log D7.4 value), cellular permeability (using Caco-2 cells), and metabolic stability (using mouse and human liver S9 fractions) (see Table 3). […]
LogD7.4 was analyzed using an HPLC−MS based method. The retention time of 12 compounds with known LogD7.4 was determined and plotted toward their LogD7.4. Linear regression was used to determine the LogD7.4 of unknown compounds. Analysis was performed using a Dionex Ultimate 3000 HPLC system coupled to a TSQ Quantum Access MAX (Thermo Fisher, Dreieich, Germany) with the following conditions: EC150/2 NUCLEODUR C18 Pyramid column, 5 μM (Macherey Nagel, Düren, Germany); eluent A: 50 mM NH4OAc pH 7.4, eluent B: acetonitrile, and flow: 0.6 mL/min. The gradient was set to 0−100% B from 0 to 2.5 min, […]
are means of two replicates. […]

[2] = biological target: T1, LANA–DNA interaction (LANA DBD aa934-1162 wild type / LBS1) (Human herpesvirus 8 type P, UniProt Q9QR71); assay: EMSA, LANA DBD wild type with LBS1; format: biochemical, Kaposi's sarcoma-associated herpesvirus (KSHV)
T1 construct: LANA DBD (aa934-1162) wild type protein (200 nM final) was incubated with
Procedure: Equation y = A2 + (A1-A2)/(1 + (x/x0)^p)
Fig S1: Binding affinity curves via MST for all compounds. Values are means of at least three replicates.
(§2) 1.4 Electrophoretic Mobility Shift Assay (EMSA)
(§3) The EMSA was carried out with slight modific ations as described previously 2 based on the assay in Hellert et al. (2013). 3 His-tagged oligomerization-deficient LANA DBD (aa1008-1146) mutant protein or LANA DBD (aa934-1162) wild type protein (200 nM final) was incubated with a 5´-Dy682-labeled double stranded DNA probe (IBA Lifesciences) (20 nM final) for 30 minutes at RT in the dark. The reaction buffer consisted of 30 mM Tris HCl pH 7.5, 50 mM KCl, 10 mM MgCl2, 1 mM DTT, 1 mM EDTA, 10% glycerol, 0.25% Tween20, 0.5 mg/mL BSA and 0.05 mg/mL poly(dI-dC). […]
(§4) dark. 10 µL of the reaction was run on a pre -run native 5% acrylamide gel for 45 minutes at 100V with tris-borate-EDTA buffer. Images of the gels were acquired and analysed with the Odyssey (Licor) using the Image Studio software.
(§5) Fig S2: Gels of EMSA experiments at 250 μM for all compounds (A) and dose-dependent curves for compound 20 using LANA DBD mutant (B) and LANA wildtype (C) as well as LBS1. Values are means […]
(§6) Gleichung y = A2 + (A1-A2)/(1 + (x/x0)^p) […]

[3] = Kinetic solubility; format: physicochemical; conditions: PBS with 1% DMSO; 1% DMSO in PBS, pH 7.4
Procedure: The next step was an in vitro ADMET profiling of the best seven compounds so far: 9, 11, 14, 19, 20, 21, and 27. The compounds were tested for their kinetic solubility (1% DMSO in PBS, pH 7.4), lipophilicity (chromatographic Log D7.4 value), cellular permeability (using Caco-2 cells), and metabolic stability (using mouse and human liver S9 fractions) (see Table 3).
The desired compounds were sequentially diluted in DMSO in a 96-well plate. 1.5 µL of each well were transferred into another 96-well plate and mixed with 148.5 µL of PBS. Plates were shaken for 5 min at 600 rpm at room temperature (r.t.), and the absorbance at 620 nm was measured. Absorbance values were normalized by blank subtraction and plotted using GraphPad Prism 8.4.2 (GraphPad Software, San Diego, CA, USA). Solubility (S) was determined based on the First X value of AUC function using a threshold of 0.005. […]

[4] = biological target: LANA–DNA interaction (oligomerization-deficient LANA DBD aa 1008–1146 mutant / LBS1) (Human herpesvirus 8 (Kaposi's sarcoma-associated herpesvirus), UniProt Q76SB0); assay: Electrophoretic mobility shift assay (EMSA), LANA DBD mutant with LBS1 oligonucleotide; format: biochemical, Kaposi's sarcoma-associated herpesvirus (KSHV)
Procedure: In these assays, an oligomerization-deficient mutant of a LANA C-terminal protein fragment (aa 1008–1146) and an oligonucleotide representing LANA-binding site (LBS) 1 were used, which are convenient to use and handle for the described biophysical methods, while maintaining the essential DNA-binding interface.[25]
Equation y = A2 + (A1-A2)/(1 + (x/x0)^p) […]
as §2, §3, §4, §5, §6

[5] = Metabolic stability in human liver S9 fraction; format: in vitro ADME; conditions: human liver S9, 1 μM compound
Procedure: as §1
(§7) 1.7 Metabolic Stability in Liver S9 Fractions
(§8) For the evaluation of combined phase I and phase II metabolic stability, the compound (1 μM) was incubated with 1 mg/mL pooled mouse liver S9 fraction (Xenotech, Kansas City, USA) or human liver S9 fraction (Corning, USA), 2 mM NADPH, 1 mM UDPGA, 10 mM MgCl 2, 5 mM GSH and 0.1 mM PAPS at 37 °C for 240 min. The metabolic stability of testosterone, verapamil and ketoconazole were determined in parallel to confirm the enzymatic activity of mouse S9 fractions, for human S9 testosterone, diclofenac and propranolol were used. The incubation was stopped after defined time points by precipitation of aliquots of S9 enzymes with 2 volumes of cold acetonitrile containing internal standard (150 nM diphenhydramine). Samples were stored on ice until the end of the incubation and precipitated protein was removed by centrifugation (15 min, 4 °C, 4,000 g). Concentration of the remaining test compound at the different time points was analyzed by HPLC-MS/MS (TSQ Quantum Access MAX, Thermo Fisher, Dreieich, Germany) and used to determine half -life (t1/2). Values are means of three

[6] = Metabolic stability in mouse liver S9 fraction; format: in vitro ADME; conditions: pooled liver S9 fraction, mouse liver S9, 1 μM compound
Procedure: as §1, §7, §8

T1 sequence (Q9QR71 901-1129): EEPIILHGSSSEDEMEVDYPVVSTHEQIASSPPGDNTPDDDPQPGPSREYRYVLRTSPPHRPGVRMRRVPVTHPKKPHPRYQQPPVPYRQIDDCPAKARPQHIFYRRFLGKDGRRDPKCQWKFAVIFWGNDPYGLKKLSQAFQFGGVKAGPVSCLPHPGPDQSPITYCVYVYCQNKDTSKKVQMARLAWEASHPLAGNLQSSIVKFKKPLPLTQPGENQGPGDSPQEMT

In the case of `COc1ccc(-c2cc(C)c(-n3cc(-c4ccc(C(=O)O)cc4)nn3)cn2)c(Cl)c1` [Compound 20], the chromatographic logD [1] is reported as 0.75, the IC50 [2] is reported as 205 µM and the solubility kinetic at 5 min [3] is reported as > 200 µM. For the same molecule, the “Inhibition (EMSA, LBS1) @250 μM” value ([4]; compound at 250 μM, LBS1 oligonucleotide, LANA aa 1008–1146 mutant) was 93%, the IC50 ([4]; read-out: x0 of logistic fit, dose-dependent EMSA curve (converted), Fig S2, LBS1, curve with A2 95.7, assigned to LANA DBD mutant) was 43.7 µM and the microsomal CLint at 1 µM ([5]; read-out: MetStab Human Liver S9 Clint) was < 5.8 µL/min/mg. For the same molecule, the half-life at 1 µM ([5]; read-out: MetStab Human Liver S9 t1/2) was > 2 h, the microsomal CLint at 1 µM ([6]; read-out: MetStab Mouse Liver S9 Clint) was < 5.8 µL/min/mg and the half-life at 1 µM ([6]; read-out: MetStab Mouse Liver S9 t1/2) was > 2 h.
